Source: paper PMC9186351, “Discovery of N-quinazolinone-4-hydroxy-2-quinolone-3-carboxamides as DNA gyrase B-targeted antibacterial agents” (Journal of Enzyme Inhibition and Medicinal Chemistry, 2022)
Converted amounts (≈) assume the structure as drawn. Like-named read-outs stand apart in the source and are kept apart here.

What was measured:
in vitro = in vitro ADME, mouse; details: mouse, plasma
Description: The mouse plasma was purchased from Charles River and stored at −20 °C. The stock solution of the test compound dissolved in DMSO (50 mM) was prepared and diluted to obtain a working solution at the concentration of 0.2 mM. The working solution of the control compound, i.e. propantheline, was similarly prepared (0.2 mM). Terfenadine (5 ng/mL) and tolbutamide (10 ng/mL) dissolved in acetonitrile were used as two quenching solutions.
The mouse plasma was pre-warmed at 37 °C for 15 min. The working solution of the test/control compound (2 µL) was then added to the mouse plasma (398 µL) in a 96-well plate. Next, 30 µL of the reaction mixture was sampled and moved to 300 µL of quenching solutions at each time point: 0, 5, 15, 30, 60, and 120 min for the control compound and 0, 15, 30, 60, and 120 min for the test compound. When the sampling was done, each sample was centrifuged at 4000 rpm at 4 °C for 15 min. Then, 100 µL of the supernatant was removed and mixed with 100 µL of distilled water for LC-MS/MS analysis with Shimadzu HPLC system and the AB Sciex API 4000 QTRAP instrument. The remaining compound (%) after incubation in plasma versus the incubation time was plotted. The half-life (t1/2) value of the compound was determined via linear regression from the plot.

[1] = tested on: vancomycin intermediate resistant S. aureus (VISA); assay: MIC by broth microdilution, VISA strains; type: cell-based; details: Staphylococcus aureus, read-out: MIC
Description: (§1) All of the bacterial strains used in this study were obtained from the Collection Centre of Pathogen Microorganism of Chinese Academy of Medical Sciences (CAMS-CCPM-A) in China. All of the isolates were stored at −80 °C and streaked on tryptic soy agar (TSA) plates to obtain overnight cultures. The MICs of the test compounds were determined by the broth microdilution method in accordance with the Clinical and Laboratory Standards Institute (CLSI) guidelines.[20] Cation-adjusted Mueller-Hinton broth (CAMHB) was used as the growth medium for MIC assays. Briefly, 100 μL of serially diluted compounds (starting concentrations were 64 μg/mL) in CAMH broth were added to the wells of 96-well microtiter plates. Then, 10 µL of 5 × 10^6 CFU/mL bacterial culture was added to each well. […] The MIC was defined as the lowest concentration of a compound that inhibited visual growth of the bacteria. Vancomycin was set as the positive control for this assay.

[2] = tested on: methicillin-resistant S. aureus (MRSA); assay: MIC by broth microdilution, MRSA strains; type: cell-based; details: Staphylococcus aureus
Description: as §1

[3] = Mouse microsomal stability assay; type: in vitro ADME; details: mouse, microsomes, pH 7.4
Description: The mouse liver microsomes were purchased from BioreclamationIVT and stored at −80 °C. The working solutions (0.2 mM) of the control compound, i.e. dextromethorphan, and the test compound dissolved in DMSO were prepared. Terfenadine (5 ng/mL) and tolbutamide (10 ng/mL) dissolved in acetonitrile were used as two quenching solutions. NADPH was dissolved in the phosphate buffer (50 mM K2HPO4, pH 7.4) at 5 mM. The mouse liver microsomes were thawed at 37 °C. The concentration of the stock solution was 20 mg/mL. The working solution (0.629 mg/mL) was prepared by dilution in phosphate buffer.
The working solution of the control/test compound (1.5 µL) was mixed with the liver microsome working solution (238.5 µL) in a 96-well plate and pre-incubated at 37 °C for 5 min. The 5 mM NADPH working solution (60 µL) was added to the solution to initiate the metabolic reaction. At each time point (0, 5, 15, 30, and 60 for the control/test compound), 30 µL of the reaction mixture was sampled and moved to 300 µL of quenching solutions. When the sampling was done, each sample was centrifuged at 4000 rpm at 4 °C for 15 min. The supernatant was analysed with the same HPLC system as the plasma stability assay. The residues (%) of the test/control compound along with the incubation time were calculated based on which the half-life (t1/2) value was determined.

MRSA/VISA strains = assay: MIC by broth microdilution, MRSA and VISA panel; type: cell-based, S. aureus; details: Staphylococcus aureus
Description: as §1

[4] = tested on: methicillin-sensitive S. aureus (MSSA); assay: MIC by broth microdilution, MSSA isolates; type: cell-based; details: Staphylococcus aureus
Description: as §1

HepG2 cells = assay: Cytotoxicity, SRB assay, HepG2; type: cell-based, human; details: 72-h treatment (footnote), read-out: In vitro cytotoxicity CC50 (μM, mean ± SD)
Description: (§2) Cytotoxicity in terms of CC50 was determined by the SRB assay according to the protocol described in our previous publication.[16] Briefly, human HUVECs or HepG2 cells were seeded in the wells of 96-well plates at a concentration of 1 × 10^5 cells per well and incubated at 37 °C for 24 h. […] The cells were fixed with 10% trichloroacetic acid (w/v) at 4 °C for 1 h, washed five times with distilled water, and stained with 0.4% SRB solution at room temperature for another 20 min. The cells were then washed five times with 1% acetic acid and air-dried. The protein-bound dye was dissolved in 10 mM Tris-base solution and shaken for 5 min. The optical density (OD) was measured at 540 nm using a microplate reader to estimate the cell viability (%). With the viability values (%) of the cells treated by the compound at different concentrations as input, the CC50 value was determined by the non-linear regression with normalised dose-response fit implemented in GraphPad Prism version 5 software (GraphPad Software Inc., La Jolla, CA). The experiment was performed in duplicate, and paclitaxel was used as the positive drug for this assay.

[5] = Cytotoxicity, SRB assay, HepG2; type: cell-based, human; details: human, HepG2 cells, 72-h treatment (footnote), read-out: In vitro cytotoxicity CC50 (μM, mean ± SD)
Description: as §2

Compound CCCCCc1nc2ccccc2c(=O)n1NC(=O)c1c(O)c2ccccc2n(CC)c1=O [f1, N-(4-oxo-2-pentylquinazolin-3(4H)-yl)-1-ethyl-4-hydroxy-2-oxo-1,2-dihydroquinoline-3-carboxamide] has a half-life at 1 µM (in vitro) of over 373 min, an MIC ([1]; ATCC 700699 / VISA, VISA ATCC 700699) of 8 µg/mL (≈ 17.9 µM) and an MIC ([1]; VISA, VISA HIP 5827) of 4 µg/mL (≈ 8.96 µM). The MIC ([1]; VISA, VISA HIP 5836) was 16 µg/mL (≈ 35.8 µM), the MIC ([2]; ATCC 33591 / MRSA, MRSA ATCC 33591, read-out: MIC) was 4 µg/mL (≈ 8.96 µM) and the MIC ([2]; ATCC 43300 / MRSA, MRSA ATCC 43300, read-out: MIC) was 4 µg/mL (≈ 8.96 µM). For the same compound, the MIC ([2]; MRSA 18-2, read-out: MIC) was 8 µg/mL (≈ 17.9 µM), the MIC ([2]; span over MRSA strains, read-out: MICs against MRSA) was 4 to 8 µg/mL (≈ 8.96 to 17.9 µM) and the half-life at 1 µM [3] was 24.5 min. For the same compound, the MIC (MRSA/VISA strains; ATCC 33591 / ATCC 43300 / ATCC 700699 / MRSA / VISA, span over ATCC 33591, ATCC 43300, 18-2, ATCC 700699, HIP 5836, HIP 5827, read-out: MICs for MRSA and VISA strains) was 4 to 16 µg/mL, the MIC (MRSA/VISA strains; span over tested MRSA/VISA strains, read-out: MICs for MRSA/VISA strains converted to) was 8.97 to 35.9 µM and the MIC ([4]; ATCC 29213 / BAA-1708 / BAA-976 / MSSA, ATCC 29213, 15, 18-3, BAA976, BAA1708, span over isolates, read-out: MIC over the five MSSA isolates) was 4 to 8 µg/mL (≈ 8.96 to 17.9 µM). It also gave an MIC ([4]; ATCC 29213 / MSSA, MSSA ATCC 29213, read-out: MIC) of 4 µg/mL (≈ 8.96 µM), an MIC ([4]; BAA-976 / MSSA, MSSA BAA976, read-out: MIC) of 4 µg/mL (≈ 8.96 µM) and an MIC ([4]; BAA-1708 / MSSA, MSSA BAA1708, read-out: MIC) of 4 µg/mL (≈ 8.96 µM). For the same compound, the MIC ([4]; MSSA, MSSA 15, read-out: MIC) was 8 µg/mL (≈ 17.9 µM), the MIC ([4]; MSSA, MSSA 18-3, read-out: MIC) was 4 µg/mL (≈ 8.96 µM) and the CC50 (HepG2 cells) was 49.6 ± 0.2 µM. For the same compound, the CC50 at 72 h [5] was about 50 µM.
